Source: publication PMC9856672, “SGC-CAMKK2-1: A Chemical Probe for CAMKK2” (Cells, 2023)

Key:
ACVR2B = target: T1, ACVR2B (Homo sapiens, UniProt Q13705); assay: KINOMEscan 1 μM, ACVR2B; type: binding; conditions: 1000 nM; Entrez ACVR2B; read-out: Percent Control
T1 construct: purchased Eurofins DiscoverX KINOMEscan
Source text: (§1) Supplement cells-12-00287-s001.zip/File S2. KinomeScan data for the CAMKK2 probe and negative control.xlsx, sheet "SGC-CAMKK2-1" | column: Percent Control

ULK1 = target: T2, ULK1 (Homo sapiens, UniProt O75385); assay: KINOMEscan 1 μM, ULK1; type: binding; conditions: 1000 nM; Entrez ULK1; read-out: Percent Control
T2 construct: purchased Eurofins DiscoverX KINOMEscan
Source text: as §1

EGFR(G719S) = target: T3, EGFR(G719S) (Homo sapiens, UniProt P00533, G719S); assay: KINOMEscan 1 μM, EGFR(G719S); type: binding; conditions: 1000 nM; Entrez EGFR; read-out: Percent Control
T3 construct: purchased Eurofins DiscoverX KINOMEscan
T3 sequence (P00533 25-1210 G719S): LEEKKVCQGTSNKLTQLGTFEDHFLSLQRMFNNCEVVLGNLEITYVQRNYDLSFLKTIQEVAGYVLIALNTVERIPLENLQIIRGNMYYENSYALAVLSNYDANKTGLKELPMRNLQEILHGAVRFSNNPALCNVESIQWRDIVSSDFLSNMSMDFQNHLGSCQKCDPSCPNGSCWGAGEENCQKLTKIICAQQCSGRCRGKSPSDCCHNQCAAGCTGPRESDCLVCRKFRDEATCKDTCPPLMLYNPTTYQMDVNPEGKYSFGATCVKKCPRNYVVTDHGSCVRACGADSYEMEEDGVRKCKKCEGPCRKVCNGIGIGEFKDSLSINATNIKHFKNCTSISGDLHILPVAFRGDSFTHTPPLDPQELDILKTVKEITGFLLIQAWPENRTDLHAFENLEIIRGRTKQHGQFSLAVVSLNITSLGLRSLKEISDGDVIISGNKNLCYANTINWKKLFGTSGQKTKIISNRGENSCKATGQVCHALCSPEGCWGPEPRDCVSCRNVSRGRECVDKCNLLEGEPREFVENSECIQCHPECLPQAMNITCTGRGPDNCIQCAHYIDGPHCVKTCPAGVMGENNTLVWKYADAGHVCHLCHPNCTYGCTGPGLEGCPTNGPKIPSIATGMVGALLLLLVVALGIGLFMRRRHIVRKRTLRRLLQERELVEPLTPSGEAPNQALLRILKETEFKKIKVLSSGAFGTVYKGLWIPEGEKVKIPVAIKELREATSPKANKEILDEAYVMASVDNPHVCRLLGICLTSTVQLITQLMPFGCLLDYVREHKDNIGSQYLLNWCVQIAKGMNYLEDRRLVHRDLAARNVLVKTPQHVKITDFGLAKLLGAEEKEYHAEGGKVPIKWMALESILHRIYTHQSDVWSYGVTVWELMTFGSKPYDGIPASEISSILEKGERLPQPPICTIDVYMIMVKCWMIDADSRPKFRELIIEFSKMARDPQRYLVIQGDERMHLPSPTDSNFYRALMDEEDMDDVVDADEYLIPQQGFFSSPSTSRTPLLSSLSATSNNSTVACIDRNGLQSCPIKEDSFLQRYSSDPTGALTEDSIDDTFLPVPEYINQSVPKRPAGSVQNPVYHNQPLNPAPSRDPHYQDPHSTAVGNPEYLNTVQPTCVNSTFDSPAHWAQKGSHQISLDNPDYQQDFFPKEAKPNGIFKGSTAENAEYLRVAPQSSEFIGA
Source text: as §1

EGFR(L858R) = target: T4, EGFR(L858R) (Homo sapiens, UniProt P00533, L858R); assay: KINOMEscan 1 μM, EGFR(L858R); type: binding; conditions: 1000 nM; Entrez EGFR; read-out: Percent Control
T4 construct: purchased Eurofins DiscoverX KINOMEscan
Source text: as §1

TAOK1 = target: T5, TAOK1 (Homo sapiens, UniProt Q7L7X3); assay: KINOMEscan 1 μM, TAOK1; type: binding; conditions: 1000 nM; Entrez TAOK1; read-out: Percent Control
T5 construct: purchased Eurofins DiscoverX KINOMEscan
Source text: as §1

SIK2 = target: T6, SIK2 (Homo sapiens, UniProt Q9H0K1); assay: KINOMEscan 1 μM, SIK2; type: binding; conditions: 1000 nM; Entrez SIK2; read-out: Percent Control
T6 construct: purchased Eurofins DiscoverX KINOMEscan
Source text: as §1

[1] = target: T7, EGFR(L747-E749del, A750P) (Homo sapiens, UniProt P00533, A750P/DEL747-749); assay: KINOMEscan 1 μM, EGFR(L747-E749del, A750P); type: binding; conditions: 1000 nM; Entrez EGFR; read-out: Percent Control
T7 construct: purchased Eurofins DiscoverX KINOMEscan
Source text: as §1

CAMK2A = target: T8, CAMK2A (Homo sapiens, UniProt Q9UQM7); assay: KINOMEscan 1 μM, CAMK2A; type: binding; conditions: 1000 nM; Entrez CAMK2A; read-out: Percent Control
T8 construct: purchased Eurofins DiscoverX KINOMEscan
Source text: as §1

AAK1 = target: T9, AAK1 (Homo sapiens, UniProt Q2M2I8); assay: KINOMEscan 1 μM, AAK1; type: binding; conditions: 1000 nM; Entrez AAK1; read-out: Percent Control
T9 construct: purchased Eurofins DiscoverX KINOMEscan
Source text: as §1

EPHB4 = target: T10, EPHB4 (Homo sapiens, UniProt P54760); assay: KINOMEscan 1 μM, EPHB4; type: binding; conditions: 1000 nM; Entrez EPHB4; read-out: Percent Control
T10 construct: purchased Eurofins DiscoverX KINOMEscan
Source text: as §1

ASK1 = target: T11, ASK1 (Homo sapiens, UniProt Q99683); assay: KINOMEscan 1 μM, ASK1; type: binding; conditions: 1000 nM; Entrez MAP3K5; read-out: Percent Control
T11 construct: purchased Eurofins DiscoverX KINOMEscan
T11 sequence (Q99683 whole entry): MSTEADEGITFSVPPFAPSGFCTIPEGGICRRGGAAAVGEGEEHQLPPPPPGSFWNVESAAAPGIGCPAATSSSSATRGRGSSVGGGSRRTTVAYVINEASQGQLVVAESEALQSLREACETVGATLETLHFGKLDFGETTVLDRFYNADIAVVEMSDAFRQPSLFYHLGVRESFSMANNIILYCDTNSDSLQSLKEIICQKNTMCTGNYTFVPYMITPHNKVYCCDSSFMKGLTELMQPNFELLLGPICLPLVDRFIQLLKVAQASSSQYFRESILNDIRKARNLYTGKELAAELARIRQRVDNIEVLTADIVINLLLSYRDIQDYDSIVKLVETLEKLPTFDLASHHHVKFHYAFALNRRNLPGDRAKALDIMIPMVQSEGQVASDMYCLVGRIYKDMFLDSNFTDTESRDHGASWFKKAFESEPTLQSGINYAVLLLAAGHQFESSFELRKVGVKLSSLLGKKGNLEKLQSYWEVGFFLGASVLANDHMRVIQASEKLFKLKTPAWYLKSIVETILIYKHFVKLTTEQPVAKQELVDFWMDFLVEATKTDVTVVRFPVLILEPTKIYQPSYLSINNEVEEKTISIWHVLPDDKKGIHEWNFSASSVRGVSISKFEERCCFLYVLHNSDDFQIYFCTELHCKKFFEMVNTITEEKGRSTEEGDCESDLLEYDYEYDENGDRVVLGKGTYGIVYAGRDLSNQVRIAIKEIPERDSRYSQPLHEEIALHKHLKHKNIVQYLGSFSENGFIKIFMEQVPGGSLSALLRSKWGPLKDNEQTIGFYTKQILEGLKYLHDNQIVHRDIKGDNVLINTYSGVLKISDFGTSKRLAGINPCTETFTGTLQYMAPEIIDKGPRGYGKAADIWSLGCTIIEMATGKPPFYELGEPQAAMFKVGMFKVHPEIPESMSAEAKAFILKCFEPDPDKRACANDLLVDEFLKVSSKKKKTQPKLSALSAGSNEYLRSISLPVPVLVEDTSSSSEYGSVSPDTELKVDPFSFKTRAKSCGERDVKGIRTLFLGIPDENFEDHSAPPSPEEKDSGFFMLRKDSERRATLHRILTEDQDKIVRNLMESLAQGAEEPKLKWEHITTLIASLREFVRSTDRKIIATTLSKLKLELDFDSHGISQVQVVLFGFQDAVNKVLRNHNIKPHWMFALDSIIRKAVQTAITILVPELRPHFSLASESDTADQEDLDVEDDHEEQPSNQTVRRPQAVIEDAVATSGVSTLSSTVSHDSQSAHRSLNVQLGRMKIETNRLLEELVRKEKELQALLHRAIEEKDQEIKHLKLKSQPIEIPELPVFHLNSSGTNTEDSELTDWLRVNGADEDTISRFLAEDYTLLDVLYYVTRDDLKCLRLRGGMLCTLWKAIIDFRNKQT
Source text: as §1

CDC2L5 = target: T12, CDC2L5 (Homo sapiens, UniProt Q14004); assay: KINOMEscan 1 μM, CDC2L5; type: binding; conditions: 1000 nM; Entrez CDK13; read-out: Percent Control
T12 construct: purchased Eurofins DiscoverX KINOMEscan
Source text: as §1

IKK-epsilon = target: T13, IKK-epsilon (Homo sapiens, UniProt Q14164); assay: KINOMEscan 1 μM, IKK-epsilon; type: binding; conditions: 1000 nM; Entrez IKBKE; read-out: Percent Control
T13 construct: purchased Eurofins DiscoverX KINOMEscan
Source text: as §1

NEK2 = target: T14, NEK2 (Homo sapiens, UniProt P51955); assay: KINOMEscan 1 μM, NEK2; type: binding; conditions: 1000 nM; Entrez NEK2; read-out: Percent Control
T14 construct: purchased Eurofins DiscoverX KINOMEscan
Source text: as §1

PFTAIRE2 = target: T15, PFTAIRE2 (Homo sapiens, UniProt Q96Q40); assay: DiscoverX KINOMEscan binding assay at 1 μM, PFTAIRE2; conditions: PFTAIRE2 (CDK15); Compound Concentration 1000 nM; read-out: Percent Control
T15 construct: purchased Eurofins DiscoverX KINOMEscan
Source text: as §1

PRKCI = target: T16, PRKCI (Homo sapiens, UniProt P41743); assay: DiscoverX KINOMEscan binding assay at 1 μM, PRKCI; conditions: Compound Concentration 1000 nM, read-out: Percent Control
T16 construct: purchased Eurofins DiscoverX KINOMEscan
Source text: as §1

PRKCQ = target: T17, PRKCQ (Homo sapiens, UniProt Q04759); assay: DiscoverX KINOMEscan binding assay at 1 μM, PRKCQ; conditions: Compound Concentration 1000 nM, read-out: Percent Control
T17 construct: purchased Eurofins DiscoverX KINOMEscan
Source text: as §1

TNK1 = target: T18, TNK1 (Homo sapiens, UniProt Q13470); assay: DiscoverX KINOMEscan binding assay at 1 μM, TNK1; conditions: Compound Concentration 1000 nM, read-out: Percent Control
T18 construct: purchased Eurofins DiscoverX KINOMEscan
T18 sequence (Q13470 whole entry): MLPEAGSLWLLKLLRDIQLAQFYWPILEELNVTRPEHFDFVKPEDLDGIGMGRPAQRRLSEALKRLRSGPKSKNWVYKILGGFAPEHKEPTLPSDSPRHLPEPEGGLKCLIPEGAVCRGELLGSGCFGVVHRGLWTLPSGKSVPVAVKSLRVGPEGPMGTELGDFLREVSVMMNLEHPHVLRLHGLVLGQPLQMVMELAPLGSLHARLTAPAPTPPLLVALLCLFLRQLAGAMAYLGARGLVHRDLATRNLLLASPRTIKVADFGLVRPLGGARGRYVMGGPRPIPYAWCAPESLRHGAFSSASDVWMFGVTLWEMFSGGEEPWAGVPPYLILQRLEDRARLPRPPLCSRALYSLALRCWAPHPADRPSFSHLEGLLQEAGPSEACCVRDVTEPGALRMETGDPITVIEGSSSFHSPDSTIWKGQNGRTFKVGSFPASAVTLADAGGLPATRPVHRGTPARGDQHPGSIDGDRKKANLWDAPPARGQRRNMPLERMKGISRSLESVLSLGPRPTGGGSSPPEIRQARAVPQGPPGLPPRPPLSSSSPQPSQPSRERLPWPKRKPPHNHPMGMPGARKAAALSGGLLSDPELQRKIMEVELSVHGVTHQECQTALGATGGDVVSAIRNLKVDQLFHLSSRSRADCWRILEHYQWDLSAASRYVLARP
Source text: as §1

WEE2 = target: T19, WEE2 (Homo sapiens, UniProt P0C1S8); assay: DiscoverX KINOMEscan binding assay at 1 μM, WEE2; conditions: Compound Concentration 1000 nM, read-out: Percent Control
T19 construct: purchased Eurofins DiscoverX KINOMEscan
Source text: as §1

[2] = target: T20, ABL1(F317I)-nonphosphorylated (Homo sapiens, UniProt P00519, F317I); assay: KINOMEscan at 1 μM, ABL1(F317I)-nonphosphorylated; type: binding; conditions: 1000 nM, read-out: Percent Control
T20 construct: purchased Eurofins DiscoverX KINOMEscan
Source text: (§2) Supplement cells-12-00287-s001.zip/File S2. KinomeScan data for the CAMKK2 probe and negative control.xlsx, sheet "SGC-CAMKK2-1N" | column: Percent Control

GSK3B = target: T21, GSK3B (Homo sapiens, UniProt P49841); assay: KINOMEscan at 1 μM, GSK3B; type: binding; conditions: 1000 nM, read-out: Percent Control
T21 construct: purchased Eurofins DiscoverX KINOMEscan
Source text: as §2

TRPM6 = target: T22, TRPM6 (Homo sapiens, UniProt Q9BX84); assay: KINOMEscan at 1 μM, TRPM6; type: binding; conditions: 1000 nM, read-out: Percent Control
T22 construct: purchased Eurofins DiscoverX KINOMEscan
Source text: as §2

CAMK1D = target: T23, CAMK1D (Homo sapiens, UniProt Q8IU85); assay: KINOMEscan at 1 μM, CAMK1D; type: binding; conditions: 1000 nM, read-out: Percent Control
T23 construct: purchased Eurofins DiscoverX KINOMEscan
Source text: as §2

MKNK2 = target: T24, MKNK2 (Homo sapiens, UniProt Q9HBH9); assay: KINOMEscan at 1 μM, MKNK2; type: binding; conditions: 1000 nM, read-out: Percent Control
T24 construct: purchased Eurofins DiscoverX KINOMEscan
Source text: as §2

PIM1 = target: T25, PIM1 (Homo sapiens, UniProt P11309); assay: KINOMEscan at 1 μM, PIM1; type: binding; conditions: 1000 nM, read-out: Percent Control
T25 construct: purchased Eurofins DiscoverX KINOMEscan
T25 sequence (P11309 whole entry): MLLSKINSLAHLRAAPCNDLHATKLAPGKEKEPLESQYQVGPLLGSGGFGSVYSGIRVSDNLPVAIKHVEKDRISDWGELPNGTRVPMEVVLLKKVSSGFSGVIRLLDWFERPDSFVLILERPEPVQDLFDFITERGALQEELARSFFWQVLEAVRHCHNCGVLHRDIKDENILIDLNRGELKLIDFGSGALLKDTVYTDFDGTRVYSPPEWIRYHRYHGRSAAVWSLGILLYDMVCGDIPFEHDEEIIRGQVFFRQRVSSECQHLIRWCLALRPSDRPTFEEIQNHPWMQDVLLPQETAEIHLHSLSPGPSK
Source text: as §2

ULK3 = target: T26, ULK3 (Homo sapiens, UniProt Q6PHR2); assay: KINOMEscan at 1 μM, ULK3; type: binding; conditions: 1000 nM, read-out: Percent Control
T26 construct: purchased Eurofins DiscoverX KINOMEscan
Source text: as §2

IKK-beta = target: T27, IKK-beta (Homo sapiens, UniProt O14920); assay: KINOMEscan at 1 μM, IKK-beta; type: binding; conditions: 1000 nM, read-out: Percent Control
T27 construct: purchased Eurofins DiscoverX KINOMEscan
Source text: as §2

SNARK = target: T28, SNARK (Homo sapiens, UniProt Q9H093); assay: KINOMEscan at 1 μM, SNARK; type: binding; conditions: 1000 nM, read-out: Percent Control
T28 construct: purchased Eurofins DiscoverX KINOMEscan
Source text: as §2

WNK4 = target: T29, WNK4 (Homo sapiens, UniProt Q96J92); assay: KINOMEscan at 1 μM, WNK4; type: binding; conditions: 1000 nM, read-out: Percent Control
T29 construct: purchased Eurofins DiscoverX KINOMEscan
Source text: as §2

[3] = target: T30, ABL1(F317L)-nonphosphorylated (Homo sapiens, UniProt P00519, F317L); assay: KINOMEscan at 1 μM, ABL1(F317L)-nonphosphorylated; type: binding; conditions: 1000 nM, read-out: Percent Control
T30 construct: purchased Eurofins DiscoverX KINOMEscan
Source text: as §2

MARK4 = target: T31, MARK4 (Homo sapiens, UniProt Q96L34); assay: KINOMEscan binding assay at 1 μM, MARK4; conditions: Compound Concentration 1000 nM; read-out: Percent Control
T31 construct: purchased Eurofins DiscoverX KINOMEscan
Source text: as §2

PRP4 = target: T32, PRP4 (Homo sapiens, UniProt Q13523); assay: KINOMEscan binding assay at 1 μM, PRP4; conditions: Compound Concentration 1000 nM; read-out: Percent Control
T32 construct: purchased Eurofins DiscoverX KINOMEscan
T32 sequence (Q13523 whole entry): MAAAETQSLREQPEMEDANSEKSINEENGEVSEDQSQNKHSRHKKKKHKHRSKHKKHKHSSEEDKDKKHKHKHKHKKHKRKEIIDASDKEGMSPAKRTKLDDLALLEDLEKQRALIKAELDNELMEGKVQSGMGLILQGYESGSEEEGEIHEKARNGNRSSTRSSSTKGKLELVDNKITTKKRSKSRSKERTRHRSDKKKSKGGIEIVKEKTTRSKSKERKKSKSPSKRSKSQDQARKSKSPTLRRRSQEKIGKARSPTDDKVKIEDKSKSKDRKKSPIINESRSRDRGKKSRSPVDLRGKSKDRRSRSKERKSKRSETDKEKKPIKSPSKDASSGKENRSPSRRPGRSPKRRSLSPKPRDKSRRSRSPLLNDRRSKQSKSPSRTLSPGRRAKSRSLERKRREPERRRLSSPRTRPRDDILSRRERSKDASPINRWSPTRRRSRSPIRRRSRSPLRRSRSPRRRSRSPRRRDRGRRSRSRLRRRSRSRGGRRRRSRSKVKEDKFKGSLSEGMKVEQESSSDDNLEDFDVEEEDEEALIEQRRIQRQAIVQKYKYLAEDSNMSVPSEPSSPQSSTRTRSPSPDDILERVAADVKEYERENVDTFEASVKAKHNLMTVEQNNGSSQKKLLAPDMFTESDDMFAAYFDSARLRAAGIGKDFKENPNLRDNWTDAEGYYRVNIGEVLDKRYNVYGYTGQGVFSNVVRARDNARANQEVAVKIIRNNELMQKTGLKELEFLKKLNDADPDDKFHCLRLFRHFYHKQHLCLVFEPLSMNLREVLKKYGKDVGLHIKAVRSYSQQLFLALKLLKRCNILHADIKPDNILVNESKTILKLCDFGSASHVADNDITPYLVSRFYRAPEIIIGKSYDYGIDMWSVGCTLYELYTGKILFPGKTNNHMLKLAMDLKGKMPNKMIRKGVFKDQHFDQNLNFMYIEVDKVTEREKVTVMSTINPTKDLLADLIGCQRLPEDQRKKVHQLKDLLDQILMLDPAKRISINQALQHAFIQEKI
Source text: as §2

[4] = target: T33, RSK3(Kin.Dom.1-N-terminal) (Homo sapiens, UniProt Q15349); assay: KINOMEscan binding assay at 1 μM, RSK3(Kin.Dom.1-N-terminal); conditions: Compound Concentration 1000 nM; read-out: Percent Control
T33 construct: RSK3(Kin.Dom.1-N-terminal); purchased Eurofins DiscoverX KINOMEscan
T33 sequence (Q15349 1-388 limits assumed): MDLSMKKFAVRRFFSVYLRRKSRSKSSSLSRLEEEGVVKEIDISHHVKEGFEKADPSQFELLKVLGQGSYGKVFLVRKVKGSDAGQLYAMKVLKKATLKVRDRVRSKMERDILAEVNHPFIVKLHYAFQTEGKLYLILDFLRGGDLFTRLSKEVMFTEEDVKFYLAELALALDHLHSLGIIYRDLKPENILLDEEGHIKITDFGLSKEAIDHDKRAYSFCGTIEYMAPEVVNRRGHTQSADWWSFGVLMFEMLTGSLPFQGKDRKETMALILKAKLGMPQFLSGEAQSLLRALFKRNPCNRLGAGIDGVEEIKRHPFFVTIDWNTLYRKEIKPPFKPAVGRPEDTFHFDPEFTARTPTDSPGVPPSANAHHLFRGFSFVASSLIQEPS
Source text: as §2

Cc1cccc(-c2cnc3occ(-c4ccc(C(=O)O)c(C5CCCC5)c4)c3c2)c1 [SGC-CAMKK2-1 (YL-36)]
remaining binding at 1 µM (ACVR2B): 43% | remaining binding at 1 µM (ULK1): 62% | remaining binding at 1 µM (EGFR(G719S)): 77% | remaining binding at 1 µM (EGFR(L858R)): 77% | remaining binding at 1 µM (TAOK1): 78% | remaining binding at 1 µM (SIK2): 85% | remaining binding at 1 µM [1]: 87% | remaining binding at 1 µM (CAMK2A): 95% | remaining binding at 1 µM (AAK1): 98% | remaining binding at 1 µM (EPHB4): 98% | remaining binding at 1 µM (ASK1): 100% | remaining binding at 1 µM (CDC2L5): 100% | remaining binding at 1 µM (IKK-epsilon): 100% | remaining binding at 1 µM (NEK2): 100% | remaining binding at 1 µM (PFTAIRE2): 100% | remaining binding at 1 µM (PRKCI): 100% | remaining binding at 1 µM (PRKCQ): 100% | remaining binding at 1 µM (TNK1): 100% | remaining binding at 1 µM (WEE2): 100%

O=C(O)c1ccc(-c2coc3ncc(-c4ccccc4)cc23)cc1Cl [SGC-CAMKK2-1N (UNC-YL-83)]
remaining binding at 1 µM [2]: 37% | remaining binding at 1 µM (GSK3B): 47% | remaining binding at 1 µM (TRPM6): 53% | remaining binding at 1 µM (CAMK1D): 61% | remaining binding at 1 µM (MKNK2): 67% | remaining binding at 1 µM (PIM1): 75% | remaining binding at 1 µM (ULK3): 82% | remaining binding at 1 µM (IKK-beta): 87% | remaining binding at 1 µM (SNARK): 90% | remaining binding at 1 µM (WNK4): 93% | remaining binding at 1 µM [3]: 100% | remaining binding at 1 µM (MARK4): 100% | remaining binding at 1 µM (PRP4): 100% | remaining binding at 1 µM [4]: 100%
